Results from article PMC9214036, “Design and Synthesis of Novel PRMT1 Inhibitors and Investigation of Their Effects on the Migration of Cancer Cell” (Frontiers in Chemistry, 2022).
Where a name gives a salt, the structure may show the parent alone.

Key:
PRMT1 = PRMT1 (Homo sapiens, UniProt Q99873); experiment: Radioactive PRMT1 methylation inhibition assay ([3H]-SAM, biotinylated histone H4 peptide); format: biochemical; conditions: for inhibition at 10 µM: compound at 10 μM, read-out: % Inhibition of PRMT1 (at 10 μM); for IC50: radioactive methylation assay, read-out: IC50 (μM) against PRMT1
Experimental: A series of 2,5-substituted furan and 2,4-substituted thiazole derivatives were synthesized and screened for their inhibitory effects on PRMT1 by using the radioactive PRMT1 methylation inhibition assay, which measured the amount of methyl groups that transferred from [^3H]-SAM to a biotinylated histone H4 peptide [ac-[…](Biotin)] (Tables 1–3).
The enzyme inhibitory activities and selectivity were measured by the radioisotope assay and AlphaLISA assay in ShangHai Chempartner Co., Ltd., according to the standard protocol. […] After 250 nL of compound solutions were added to the assay plate, 15 μl of PRMT1 enzyme solution or ×1 assay buffer for negative control was transferred to each well of prepared compound stock plates and the whole system (the final concentration of PRMT1 was 0.5 nM or 2 nM in the system) was incubated for 15 min at room temperature. […] Afterward, the reaction was stopped with the addition of 5 μl cold SAM solution to each well. Then, 25 μl volume per well was transferred to a Flashplate from the assay plate and incubated for a minimum of 1 h at room temperature. Finally, the Flashplate was washed with dH2O and 0.1% Tween-20 three times and then the reading plate in Microbeta using the program ^3H-Flashplate. The data were analyzed in GraphPad Prism 5 to obtain IC50 values.

Chain of PRMT1 (Q99873 whole entry): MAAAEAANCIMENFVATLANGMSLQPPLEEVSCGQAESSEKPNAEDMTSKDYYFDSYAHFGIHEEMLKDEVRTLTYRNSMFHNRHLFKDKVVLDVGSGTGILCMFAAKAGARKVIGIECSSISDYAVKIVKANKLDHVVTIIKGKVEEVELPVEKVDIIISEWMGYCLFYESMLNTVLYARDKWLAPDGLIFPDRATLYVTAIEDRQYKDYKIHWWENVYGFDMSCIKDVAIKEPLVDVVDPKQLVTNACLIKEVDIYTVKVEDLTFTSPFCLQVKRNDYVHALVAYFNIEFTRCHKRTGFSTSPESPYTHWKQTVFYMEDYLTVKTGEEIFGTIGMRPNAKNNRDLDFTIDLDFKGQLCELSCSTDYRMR

Cl.N=C(N)c1ccc(-c2ccc(CN3CCNCC3)o2)cn1 [Compound 1n, N′-[5-(2-Amidino-5-pyridyl)furan-2-yl-methyl]-piperazine Hydrochloride]
melting point: 197.7 to 199.3 °C
inhibition at 10 µM (PRMT1): 73.51 ± 0.06%
IC50 (PRMT1): 4.68 ± 0.26 µM

CNCCN(C)Cc1ccc(-c2ccc(C(=N)N)c(F)c2)o1 [Compound 1i, N′-[5-(3-Fluoro-4-amidino-phen-1-yl)-furan-2-yl-methyl]-N,N′-dimethylethylenediamine Hydrochloride]
inhibition at 10 µM (PRMT1): 68 ± 0.02%
IC50 (PRMT1): 4.42 ± 0.63 µM

CNCCN(C)Cc1ccc(-c2ccc(N)cc2)o1.Cl [Compound 1c, N′-[5-(4-Aminophenyl)-furan-2-yl-methyl]-N,N′-dimeth-ylethylenediamine Hydrochloride]
melting point: 60.2 to 61.1 °C
inhibition at 10 µM (PRMT1): 50 ± 0.18%
IC50 (PRMT1): 21.4 ± 12.8 µM

CNCCN(C)Cc1ccc(-c2cccc(C(N)=NO)c2)o1 [Compound 1g, N′-[5-(3-N-Hydroxyamidino-phen-1-yl)-furan-2-yl-methyl]-N,N′-dimethylethylenediamine Hydrochloride]
inhibition at 10 µM (PRMT1): 39.98 ± 0.19%

CNCCN(C)Cc1ccc(-c2ccc(C(N)=O)cc2)o1 [Compound 1a, N′-[5-(4-Formamide-phen-1-yl)-furan-2-yl-methyl]-N,N′-dimethylethylenediamine Hydrochloride]
inhibition at 10 µM (PRMT1): 10.6 ± 2.24%

CNCCN(C)Cc1ccc(-c2ccc(C(=N)N)c(F)c2)o1 (as salt: hydrochloride) [Compound 1i, N′-[5-(3-Fluoro-4-amidino-phen-1-yl)-furan-2-yl-methyl]-N,N′-dimethylethylenediamine Hydrochloride]
melting point: 156.5 to 159.2 °C

CNCCN(C)Cc1ccc(-c2ccc(C(=O)NN)cc2)o1 [Compound 1b, N′-[5-(4-Formylhydrazide-phen-1-yl)-furan-2-yl-methyl]-N,N′-dimethylethylenediamine Hydrochloride]
inhibition at 10 µM (PRMT1): 48 ± 0.02%

CNCCN(C)Cc1ccc(-c2ccc(C(N)=NO)c(F)c2)o1 [Compound 1f, N′-[5-(3-Fluoro-4-N-hydroxyamidino-phen-1-yl)-furan-2-yl-methyl]-N,N′-dimethylethylenediamine Hydrochloride]
inhibition at 10 µM (PRMT1): 35.97 ± 0.2%

CNCCN(C)Cc1ccc(-c2cccc(N)c2)o1.Cl [Compound 1d, N′-[5-(3-Aminophenyl)-furan-2-yl-methyl]-N,N′-dimethylethylenediamine Hydrochloride]
melting point: 64.2 to 65.2 °C
inhibition at 10 µM (PRMT1): 35.99 ± 0.09%

CNCCN(C)Cc1ccc(-c2ccc(C(N)=NO)c(F)c2)o1 (as salt: hydrochloride) [Compound 1f, N′-[5-(3-Fluoro-4-N-hydroxyamidino-phen-1-yl)-furan-2-yl-methyl]-N,N′-dimethylethylenediamine Hydrochloride]
melting point: 216.8 to 218.6 °C

CNCCN(C)Cc1ccc(-c2ccc(C(=N)N)nc2)o1.Cl [Compound 1l, N′-[5-(2-Amidino-5-pyridyl)furan-2-yl-methyl]-N,N′-dimethylethylenediamine Hydrochloride]
melting point: 75.8 to 78.2 °C
inhibition at 10 µM (PRMT1): 92.12 ± 0.28%
PRMT1 IC50 compared with DB75 (PRMT1; fold weaker than DB75): four times weaker than DB75
PRMT1 IC50 compared with SAH (PRMT1; fold weaker than SAH): about two times weaker than SAH
IC50 (PRMT1): 1.29 ± 0.12 µM

CNCCN(C)Cc1ccc(-c2ccc(Cl)c(C(=N)N)c2)o1 [Compound 1k, N′-[5-(3-Amidino-4-chloro-phen-1-yl)-furan-2-yl-methyl]-N,N′-dimethylethylenediamine Hydrochloride]
inhibition at 10 µM (PRMT1): 76.5 ± 0.01%
IC50 (PRMT1): 2.5 ± 0.91 µM

CNCCN(Cc1ccc(-c2ccc(C(=N)N)nc2)o1)C1CC1.Cl [Compound 1m, N-Methyl-N′-[5-(2-amidino-5-pyridyl)furan-2-yl-methyl]-N′-cyclopropylethylenediamine Hydrochloride]
melting point: 95.9 to 98.3 °C
inhibition at 10 µM (PRMT1): 48 ± 0.02%
IC50 (PRMT1): 10.8 ± 1.3 µM

CN(CCN)Cc1ccc(-c2ccc(C(=N)N)nc2)o1.Cl [Compound 1o, N′-[5-(2-Amidino-5-pyridyl)furan-2-yl-methyl]-N′-methylethylenediamine Hydrochloride]
melting point: 223.4 to 224.8 °C
inhibition at 10 µM (PRMT1): 89.02 ± 0.05%
IC50 (PRMT1): 2.41 ± 0.18 µM

CNCCN(C)Cc1ccc(-c2ccc(Cl)c(C(=N)N)c2)o1 (as salt: hydrochloride) [Compound 1k, N′-[5-(3-Amidino-4-chloro-phen-1-yl)-furan-2-yl-methyl]-N,N′-dimethylethylenediamine Hydrochloride]
melting point: 223 to 225 °C

CNCCN(C)Cc1ccc(-c2ccc(C(=O)NN)cc2)o1 (as salt: hydrochloride) [Compound 1b, N′-[5-(4-Formylhydrazide-phen-1-yl)-furan-2-yl-methyl]-N,N′-dimethylethylenediamine Hydrochloride]
melting point: 246.2 to 246.9 °C

CNCCN(C)Cc1ccc(-c2ccc(C(N)=NO)cc2)o1 (as salt: hydrochloride) [Compound 1e, N′-[5-(4-N-Hydroxyamidino-phen-1-yl)-furan-2-yl-meth-yl]-N,N′-dimethylethylenediamine Hydrochloride]
melting point: 231.2 to 232.8 °C

N=C(N)c1ccc(-c2ccc(-c3ccc(C(=N)N)cc3)o2)cc1 [DB75, furamidine, reference compound]
inhibition at 10 µM (PRMT1): 98.13 ± 0.27%
IC50 (PRMT1): 0.31 ± 0.04 µM

CNCCN(C)Cc1ccc(-c2ccc(C(N)=O)cc2)o1 (as salt: hydrochloride) [Compound 1a, N′-[5-(4-Formamide-phen-1-yl)-furan-2-yl-methyl]-N,N′-dimethylethylenediamine Hydrochloride]
melting point: 212.2 to 214.6 °C

CNCCN(C)Cc1ccc(-c2cccc(C(N)=NO)c2)o1 (as salt: hydrochloride) [Compound 1g, N′-[5-(3-N-Hydroxyamidino-phen-1-yl)-furan-2-yl-methyl]-N,N′-dimethylethylenediamine Hydrochloride]
melting point: 60.8 to 63.2 °C

CNCCN(C)Cc1ccc(-c2ccc(C(N)=NO)cc2)o1 [Compound 1e, N′-[5-(4-N-Hydroxyamidino-phen-1-yl)-furan-2-yl-meth-yl]-N,N′-dimethylethylenediamine Hydrochloride]
inhibition at 10 µM (PRMT1): 32%
